{"source": "patent US5374722A", "about": "“Bridged benzazepines” (Schering Corporation, priority 1993, dated 1994)", "key": {"D-2 receptor": {"biological_target": "T1, D-2 receptor (Rattus norvegicus, UniProt P61169)", "T1 construct": "Stdatal tissue is excised, pooled, and homogenized; from tissue; host or cells: striatum of male Sprague-Dawley rats (washed homogenate pellet)", "T1 sequence (P61169 whole entry)": "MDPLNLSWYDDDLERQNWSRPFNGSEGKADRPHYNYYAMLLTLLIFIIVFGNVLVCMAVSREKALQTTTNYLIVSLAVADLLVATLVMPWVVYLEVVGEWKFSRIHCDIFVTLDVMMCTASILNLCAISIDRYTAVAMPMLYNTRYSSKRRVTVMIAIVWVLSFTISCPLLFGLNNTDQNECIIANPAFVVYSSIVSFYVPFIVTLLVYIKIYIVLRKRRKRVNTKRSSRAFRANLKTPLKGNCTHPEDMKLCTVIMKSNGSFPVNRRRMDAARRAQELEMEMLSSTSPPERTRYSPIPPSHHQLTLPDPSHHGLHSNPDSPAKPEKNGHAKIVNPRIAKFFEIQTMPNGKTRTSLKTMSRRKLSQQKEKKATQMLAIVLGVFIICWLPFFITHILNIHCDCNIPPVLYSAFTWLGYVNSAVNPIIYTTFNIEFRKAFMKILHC", "assay": "Competitive inhibition assay: displacement of 3H-spiperone (D-2) from rat striatal tissue", "format": "binding, rat (male Sprague-Dawley)"}, "[1]": {"system": "conditioned avoidance response (CAR) in rats", "assay": "animal or person", "format": "in vivo", "conditions": "Rattus norvegicus"}, "D-1 receptor": {"biological_target": "T2, D-1 receptor (Rattus norvegicus, UniProt P18901)", "T2 construct": "Stdatal tissue is excised, pooled, and homogenized; from tissue; host or cells: striatum of male Sprague-Dawley rats (washed homogenate pellet)", "T2 sequence (P18901 whole entry)": "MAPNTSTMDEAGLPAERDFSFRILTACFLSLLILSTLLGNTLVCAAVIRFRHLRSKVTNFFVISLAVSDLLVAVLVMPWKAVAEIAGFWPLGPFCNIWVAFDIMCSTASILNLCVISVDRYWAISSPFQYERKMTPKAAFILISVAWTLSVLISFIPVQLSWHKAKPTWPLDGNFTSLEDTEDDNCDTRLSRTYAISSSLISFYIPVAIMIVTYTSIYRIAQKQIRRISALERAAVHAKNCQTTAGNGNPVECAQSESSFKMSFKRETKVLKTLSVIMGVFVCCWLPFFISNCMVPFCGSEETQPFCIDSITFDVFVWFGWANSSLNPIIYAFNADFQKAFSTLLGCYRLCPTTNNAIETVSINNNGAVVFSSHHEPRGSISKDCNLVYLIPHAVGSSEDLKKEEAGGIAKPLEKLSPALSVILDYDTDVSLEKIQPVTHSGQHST", "assay": "Competitive inhibition assay: displacement of tritiated Compound B* (D-1) from rat striatal tissue", "format": "binding, rat (male Sprague-Dawley)"}, "[2]": {"conditions": "3H-spiperone 0.2 nM, rat striatal tissue, pH 7.4, 37° C., 15 min"}, "[3]": {"conditions": "po, 1 h, read-out: Rat CAR MED Oral (minimal effective dose)"}, "[4]": {"conditions": "tritiated compound B 0.3 nM, rat striatal tissue, pH 7.4, 37° C., 15 min"}, "[5]": {"conditions": "sc, 0.5 h, read-out: Rat CAR MED sc (minimal effective dose)"}}, "note": "Counter-ions that a name gives are not always drawn. Like-named read-outs stand apart in the source and are kept apart here."}
{"compound": "Cc1cc2c3c(c1O)CCCC3CN(C)CC2", "note": "(stereo not shown) [CH3 H 1 H H H H H, 2,6-Dimethyl-1,2,3,4,8,9,1 0,10a-Octahydro-Naphth[1,8. cd]azepine-7-ol, hydrochloride]", "values": [{"measurement": "Ki", "setting": "D-2 receptor; [2]", "result": 1300, "unit": "nM"}, {"measurement": "minimal effective dose", "setting": "[1]; [3]", "result": "≤ 30", "unit": "mg/kg"}, {"measurement": "Ki", "setting": "D-1 receptor", "result": 37, "unit": "nM"}]}
{"compound": "CN1CCc2ccc(O)c3c2C(CCC3)C1", "note": "(stereo not shown) [CH H 1 H H H H H, 2-Methyl-1,2,3,4,8,9, 10,10a-OctahydroNaphth[1,8-cd]azepine-7-ol]", "values": [{"measurement": "Ki", "setting": "D-2 receptor; [2]", "result": 3350, "unit": "nM"}, {"measurement": "Ki", "setting": "D-1 receptor; [4]", "result": 350, "unit": "nM"}]}
{"compound": "CN1CCc2c(Cl)c(Cl)c(O)c3c2C(CCC3)C1", "note": "(stereo not shown) [Cl Cl 1 H H H H H, 5,6-Dichloro-2-Methyl-1,2,3,4,8,9, 10,10a-octahydronapth[1,8-cd]azepin-7-ol]", "values": [{"measurement": "Ki", "setting": "D-2 receptor; [2]", "result": 230, "unit": "nM"}, {"measurement": "minimal effective dose", "setting": "[1]; [3]", "result": 10, "unit": "mg/kg"}, {"measurement": "Ki", "setting": "D-1 receptor", "result": 1.1, "unit": "nM"}]}
{"compound": "CN1CCc2cc(Cl)c(O)c3c2C(C1)CC3(C)C", "note": "(stereo not shown) [Cl H 0 H CH3 CH3 H H]", "values": [{"measurement": "Ki", "setting": "D-2 receptor; [2]", "result": 147, "unit": "nM"}, {"measurement": "minimal effective dose", "setting": "[1]; [5]", "result": 3, "unit": "mg/kg"}, {"measurement": "Ki", "setting": "D-1 receptor", "result": 65, "unit": "nM"}]}
{"compound": "COc1cc(NC(=O)Oc2c(Cl)cc3c4c2CCCC4CN(C)CC3)cc(OC)c1", "note": "(stereo not shown) [Cl H 1 3,5-(MeO)2PhNHCO H H H H]", "values": [{"measurement": "Ki", "setting": "D-2 receptor", "result": 405, "unit": "nM"}, {"measurement": "minimal effective dose", "setting": "[1]; [3]", "result": 10, "unit": "mg/kg"}, {"measurement": "Ki", "setting": "D-1 receptor", "result": 6.6, "unit": "nM"}]}
{"compound": "CC(C)c1ccc(NC(=O)Oc2c(Cl)cc3c4c2CCCC4CN(C)CC3)cc1", "note": "(stereo not shown) [Cl H 1 4-i-PrPhNHCO H H H H, 6-Chloro-7-[(4-Isoporpylphenylamino) Carbonyloxy]-2-Methyl-1,2,3,4,8,9,10,10a-Octahydro-Naphth]1,8-cd]azepine, hydrochloride]", "values": [{"measurement": "Ki", "setting": "D-2 receptor", "result": 680, "unit": "nM"}, {"measurement": "minimal effective dose", "setting": "[1]; [3]", "result": "≤ 30", "unit": "mg/kg"}, {"measurement": "Ki", "setting": "D-1 receptor", "result": 51, "unit": "nM"}]}
{"compound": "CN1CCc2cc(Cl)c(O)c3c2C(CCC3c2ccccc2)C1", "note": "(stereo not shown) [Cl H 1 H C6H5 H H H]", "values": [{"measurement": "Ki", "setting": "D-2 receptor; [2]", "result": 42800, "unit": "nM"}, {"measurement": "minimal effective dose", "setting": "[1]; [3]", "result": "> 30", "unit": "mg/kg"}, {"measurement": "minimal effective dose", "setting": "[1]; [5]", "result": "> 10", "unit": "mg/kg"}, {"measurement": "Ki", "setting": "D-1 receptor; [4]", "result": 2080, "unit": "nM"}]}
{"compound": "CN1CCc2cc(Cl)c(O)c3c2C(CCC3(C)C)C1", "note": "(stereo not shown) [Cl H 1 H CH3 CH3 H H, 6-Chloro-2,8.8-Trimethyl-1,2,3,4,8,9,10,10a-Octahydro-Naphth [1,8-cd]azepin-7-ol]", "values": [{"measurement": "Ki", "setting": "D-2 receptor; [2]", "result": 218, "unit": "nM"}, {"measurement": "minimal effective dose", "setting": "[1]; [3]", "result": "< 30", "unit": "mg/kg"}, {"measurement": "minimal effective dose", "setting": "[1]; [5]", "result": "> 10", "unit": "mg/kg"}, {"measurement": "Ki", "setting": "D-1 receptor; [4]", "result": 256, "unit": "nM"}]}
{"compound": "CC1CCC2CN(C)CCc3cc(Cl)c(O)c1c32", "note": "(stereo not shown) [Cl H 1 H CH3 H H H, 6-chloro-2,8-dimethyl-1.2.3.4.8.9.10.10a-octahydro-naphth [1.8-c.d]azepin-7-ol]", "values": [{"measurement": "Ki", "setting": "D-2 receptor; [2]", "result": 248, "unit": "nM"}, {"measurement": "minimal effective dose", "setting": "[1]; [3]", "result": 3, "unit": "mg/kg"}, {"measurement": "minimal effective dose", "setting": "[1]; [5]", "result": 0.1, "unit": "mg/kg"}, {"measurement": "Ki", "setting": "D-1 receptor", "result": 42, "unit": "nM"}]}
{"compound": "CC1=Cc2c(O)c(Cl)cc3c2C(C1)CN(C)CC3", "note": "(stereo not shown) [Cl H 1 H H -- CH3 --]", "values": [{"measurement": "Ki", "setting": "D-2 receptor; [2]", "result": 264, "unit": "nM"}, {"measurement": "minimal effective dose", "setting": "[1]; [3]", "result": "> 30", "unit": "mg/kg"}, {"measurement": "Ki", "setting": "D-1 receptor", "result": 32, "unit": "nM"}]}
{"compound": "CC1CCC2CN(C)CCc3cc(Cl)c(O)c1c32", "note": "(stereo not shown) [Cl H 1 H H CH3 H H, 6-chloro-2,8-dimethyl-1.2.3.4.8.9.10.10a-octahydro-naphth [1.8-c.d]azepin-7-ol]", "values": [{"measurement": "Ki", "setting": "D-2 receptor; [2]", "result": 389, "unit": "nM"}, {"measurement": "Ki", "setting": "D-1 receptor", "result": 51, "unit": "nM"}]}
{"compound": "CC1Cc2c(O)c(Cl)cc3c2C(C1)CN(C)CC3", "note": "(stereo not shown) [Cl H 1 H H H CH3 H]", "values": [{"measurement": "Ki", "setting": "D-2 receptor; [2]", "result": 250, "unit": "nM"}, {"measurement": "Ki", "setting": "D-1 receptor", "result": 4.5, "unit": "nM"}]}
{"compound": "CN1CCc2cc(Cl)c(O)c3c2C(CCC3)C1", "note": "(stereo not shown) [Cl H 1 H H H H H, 6-Chloro-2-Methyl-1,2,3,4,8,9, 10, 10a-octahydro-naphth [1,8-cd]azepin-7-ol]", "values": [{"measurement": "Ki", "setting": "D-2 receptor; [2]", "result": 500, "unit": "nM"}, {"measurement": "minimal effective dose", "setting": "[1]; [3]", "result": "> 30", "unit": "mg/kg"}, {"measurement": "minimal effective dose", "setting": "[1]; [5]", "result": 0.3, "unit": "mg/kg"}, {"measurement": "Ki", "setting": "D-1 receptor", "result": 6.2, "unit": "nM"}]}
{"compound": "CN1CCc2cc(Cl)c(O)c3c2C(CCC3O)C1", "note": "(stereo not shown) [Cl H 1 H HO H H H]", "values": [{"measurement": "Ki", "setting": "D-2 receptor; [2]", "result": 6590, "unit": "nM"}, {"measurement": "Ki", "setting": "D-1 receptor; [4]", "result": 110, "unit": "nM"}]}
{"compound": "CN1CCc2cc(Cl)c(OC(=O)N(C)C)c3c2C(CCC3)C1", "note": "(stereo not shown) [Cl H 1 Me2NCO H H H H]", "values": [{"measurement": "Ki", "setting": "D-2 receptor", "result": 8010, "unit": "nM"}, {"measurement": "minimal effective dose", "setting": "[1]; [3]", "result": 10, "unit": "mg/kg"}, {"measurement": "minimal effective dose", "setting": "[1]; [5]", "result": 3, "unit": "mg/kg"}, {"measurement": "Ki", "setting": "D-1 receptor", "result": 1010, "unit": "nM"}]}
{"compound": "COc1cc(NC(=O)Oc2ccc3c4c2C(C)CCC4CN(C)CC3)cc(OC)c1", "note": "(stereo not shown) [H H 1 3,5-(MeO)2PhNHCO CH3 H H H]", "values": [{"measurement": "Ki", "setting": "D-2 receptor", "result": 337, "unit": "nM"}, {"measurement": "minimal effective dose", "setting": "[1]; [3]", "result": "> 30", "unit": "mg/kg"}, {"measurement": "Ki", "setting": "D-1 receptor", "result": 35, "unit": "nM"}]}
{"compound": "CC(C)c1ccc(NC(=O)Oc2ccc3c4c2C(C)CCC4CN(C)CC3)cc1", "note": "(stereo not shown) [H H 1 4-iPrPhNHCO CH3 H H H]", "values": [{"measurement": "Ki", "setting": "D-2 receptor", "result": 420, "unit": "nM"}, {"measurement": "minimal effective dose", "setting": "[1]; [3]", "result": "> 30", "unit": "mg/kg"}, {"measurement": "Ki", "setting": "D-1 receptor", "result": 134, "unit": "nM"}]}
